# Experiments:
# Test in all cases: biochemical
# Design in all cases: KinomeScan competition binding panel (DiscoveRx), percent of control at 1 uM
# Settings in all cases: read-out: Percent Control
# MEK2 = target: T1, MEK2 (Homo sapiens, UniProt P36507)
# T1 construct: gene MAP2K2
# Method in brief: (§1)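 KinomeScan technology used to profile binding across a panel of 456 kinases and mutants.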
# PIK3CA(I800L) = PIK3CA(I800L) (Homo sapiens, UniProt P42336, I800L)
# Method in brief: as §1
# PIP5K2B = target: T2, PIP5K2B (Homo sapiens, UniProt P78356)
# T2 construct: gene PIP4K2B
# Method in brief: as §1
# PAK4 = PAK4 (Homo sapiens, UniProt O96013)
# Method in brief: as §1
# [1] = target: T3, RSK4(Kin.Dom.1-N-terminal) (Homo sapiens, UniProt Q9UK32)
# T3 construct: gene RPS6KA6; Kin.Dom.1-N-terminal
# Method in brief: as §1
# TAOK1 = TAOK1 (Homo sapiens, UniProt Q7L7X3)
# Method in brief: as §1
# RAF1 = RAF1 (Homo sapiens, UniProt P04049)
# Method in brief: as §1
# PRP4 = target: T4, PRP4 (Homo sapiens, UniProt Q13523)
# T4 construct: gene PRPF4B
# Method in brief: as §1
# DYRK1B = DYRK1B (Homo sapiens, UniProt Q9Y463)
# Method in brief: as §1
# CDK7 = CDK7 (Homo sapiens, UniProt P50613)
# Chain of CDK7 (P50613 whole entry): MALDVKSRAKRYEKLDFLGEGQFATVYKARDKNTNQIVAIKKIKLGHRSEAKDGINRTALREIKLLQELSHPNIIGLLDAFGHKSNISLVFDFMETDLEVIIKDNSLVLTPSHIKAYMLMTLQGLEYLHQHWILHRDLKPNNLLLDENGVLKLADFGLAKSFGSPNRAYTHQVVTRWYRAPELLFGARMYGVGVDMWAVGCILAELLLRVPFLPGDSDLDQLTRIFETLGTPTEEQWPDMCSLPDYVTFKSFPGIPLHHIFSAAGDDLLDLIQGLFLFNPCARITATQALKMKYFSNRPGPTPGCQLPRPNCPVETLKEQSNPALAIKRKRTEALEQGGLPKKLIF
# Method in brief: as §1
# ADCK3 = target: T5, ADCK3 (Homo sapiens, UniProt Q8NI60)
# T5 construct: gene COQ8A
# Method in brief: as §1
# BIKE = target: T6, BIKE (Homo sapiens, UniProt Q9NSY1)
# T6 construct: gene BMP2K
# T6 sequence (Q9NSY1 whole entry): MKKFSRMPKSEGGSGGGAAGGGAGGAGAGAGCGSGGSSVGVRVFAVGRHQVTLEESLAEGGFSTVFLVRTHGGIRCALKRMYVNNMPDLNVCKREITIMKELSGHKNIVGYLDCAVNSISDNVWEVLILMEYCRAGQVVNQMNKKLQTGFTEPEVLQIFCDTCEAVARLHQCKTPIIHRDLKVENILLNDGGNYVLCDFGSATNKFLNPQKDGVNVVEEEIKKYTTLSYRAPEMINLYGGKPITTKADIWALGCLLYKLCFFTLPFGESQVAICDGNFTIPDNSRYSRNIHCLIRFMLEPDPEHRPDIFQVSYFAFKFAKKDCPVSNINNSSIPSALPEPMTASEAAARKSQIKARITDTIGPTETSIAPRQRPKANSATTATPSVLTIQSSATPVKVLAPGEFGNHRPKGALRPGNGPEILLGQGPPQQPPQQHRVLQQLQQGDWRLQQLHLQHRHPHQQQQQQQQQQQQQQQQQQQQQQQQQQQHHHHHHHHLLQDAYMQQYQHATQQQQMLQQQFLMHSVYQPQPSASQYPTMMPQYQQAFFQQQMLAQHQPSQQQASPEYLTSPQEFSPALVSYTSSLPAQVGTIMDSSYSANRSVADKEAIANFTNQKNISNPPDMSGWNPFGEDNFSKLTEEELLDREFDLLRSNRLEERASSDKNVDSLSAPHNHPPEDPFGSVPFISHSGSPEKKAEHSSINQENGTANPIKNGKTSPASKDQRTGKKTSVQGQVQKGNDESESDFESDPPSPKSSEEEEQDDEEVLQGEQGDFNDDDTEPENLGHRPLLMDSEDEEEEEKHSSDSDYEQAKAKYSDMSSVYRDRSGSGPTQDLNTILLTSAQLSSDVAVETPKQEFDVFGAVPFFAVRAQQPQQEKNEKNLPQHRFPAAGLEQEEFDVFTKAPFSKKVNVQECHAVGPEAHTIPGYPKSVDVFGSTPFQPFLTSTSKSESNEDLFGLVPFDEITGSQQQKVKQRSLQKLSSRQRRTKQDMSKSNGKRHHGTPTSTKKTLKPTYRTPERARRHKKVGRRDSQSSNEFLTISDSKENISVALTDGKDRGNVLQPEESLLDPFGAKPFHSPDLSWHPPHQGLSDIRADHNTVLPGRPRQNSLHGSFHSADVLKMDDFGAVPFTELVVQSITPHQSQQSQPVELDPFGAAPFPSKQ
# Method in brief: as §1
# FLT1 = FLT1 (Homo sapiens, UniProt P17948)
# Method in brief: as §1
# RIOK2 = RIOK2 (Homo sapiens, UniProt Q9BVS4)
# Method in brief: as §1
# GRK7 = GRK7 (Homo sapiens, UniProt Q8WTQ7)
# Method in brief: as §1
# DDR2 = DDR2 (Homo sapiens, UniProt Q16832)
# Method in brief: as §1
# FLT3(R834Q) = FLT3(R834Q) (Homo sapiens, UniProt P36888, R834Q)
# Method in brief: as §1
# FGFR3(G697C) = FGFR3(G697C) (Homo sapiens, UniProt P22607, G697C)
# Method in brief: as §1
# AKT2 = AKT2 (Homo sapiens, UniProt P31751)
# Method in brief: as §1
# MAP4K3 = MAP4K3 (Homo sapiens, UniProt Q8IVH8)
# Chain of MAP4K3 (Q8IVH8 whole entry): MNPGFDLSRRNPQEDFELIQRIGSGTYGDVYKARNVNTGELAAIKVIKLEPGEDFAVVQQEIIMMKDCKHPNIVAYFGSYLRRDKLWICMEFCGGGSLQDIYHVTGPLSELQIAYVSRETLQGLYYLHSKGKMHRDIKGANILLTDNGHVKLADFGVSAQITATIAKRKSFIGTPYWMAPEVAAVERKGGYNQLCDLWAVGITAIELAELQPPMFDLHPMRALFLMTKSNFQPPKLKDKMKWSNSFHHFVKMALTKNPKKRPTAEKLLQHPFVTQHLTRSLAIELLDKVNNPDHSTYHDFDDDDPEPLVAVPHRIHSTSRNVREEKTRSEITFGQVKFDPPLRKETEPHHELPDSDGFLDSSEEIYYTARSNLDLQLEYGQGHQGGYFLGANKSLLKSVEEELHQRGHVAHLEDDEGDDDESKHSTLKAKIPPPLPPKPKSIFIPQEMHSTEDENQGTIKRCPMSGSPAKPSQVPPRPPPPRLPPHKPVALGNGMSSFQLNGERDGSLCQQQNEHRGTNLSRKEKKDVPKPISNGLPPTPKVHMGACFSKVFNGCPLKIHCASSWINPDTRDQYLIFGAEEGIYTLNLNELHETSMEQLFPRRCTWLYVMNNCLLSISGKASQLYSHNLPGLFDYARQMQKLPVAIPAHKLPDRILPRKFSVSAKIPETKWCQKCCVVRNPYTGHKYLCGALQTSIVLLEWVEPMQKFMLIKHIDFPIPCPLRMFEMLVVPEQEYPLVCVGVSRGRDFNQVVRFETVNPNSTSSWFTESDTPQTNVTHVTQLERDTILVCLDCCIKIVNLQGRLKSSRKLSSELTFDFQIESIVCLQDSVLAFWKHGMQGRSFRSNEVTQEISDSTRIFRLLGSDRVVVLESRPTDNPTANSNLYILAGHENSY
# Method in brief: as §1
# DAPK1 = DAPK1 (Homo sapiens, UniProt P53355)
# Chain of DAPK1 (P53355 whole entry): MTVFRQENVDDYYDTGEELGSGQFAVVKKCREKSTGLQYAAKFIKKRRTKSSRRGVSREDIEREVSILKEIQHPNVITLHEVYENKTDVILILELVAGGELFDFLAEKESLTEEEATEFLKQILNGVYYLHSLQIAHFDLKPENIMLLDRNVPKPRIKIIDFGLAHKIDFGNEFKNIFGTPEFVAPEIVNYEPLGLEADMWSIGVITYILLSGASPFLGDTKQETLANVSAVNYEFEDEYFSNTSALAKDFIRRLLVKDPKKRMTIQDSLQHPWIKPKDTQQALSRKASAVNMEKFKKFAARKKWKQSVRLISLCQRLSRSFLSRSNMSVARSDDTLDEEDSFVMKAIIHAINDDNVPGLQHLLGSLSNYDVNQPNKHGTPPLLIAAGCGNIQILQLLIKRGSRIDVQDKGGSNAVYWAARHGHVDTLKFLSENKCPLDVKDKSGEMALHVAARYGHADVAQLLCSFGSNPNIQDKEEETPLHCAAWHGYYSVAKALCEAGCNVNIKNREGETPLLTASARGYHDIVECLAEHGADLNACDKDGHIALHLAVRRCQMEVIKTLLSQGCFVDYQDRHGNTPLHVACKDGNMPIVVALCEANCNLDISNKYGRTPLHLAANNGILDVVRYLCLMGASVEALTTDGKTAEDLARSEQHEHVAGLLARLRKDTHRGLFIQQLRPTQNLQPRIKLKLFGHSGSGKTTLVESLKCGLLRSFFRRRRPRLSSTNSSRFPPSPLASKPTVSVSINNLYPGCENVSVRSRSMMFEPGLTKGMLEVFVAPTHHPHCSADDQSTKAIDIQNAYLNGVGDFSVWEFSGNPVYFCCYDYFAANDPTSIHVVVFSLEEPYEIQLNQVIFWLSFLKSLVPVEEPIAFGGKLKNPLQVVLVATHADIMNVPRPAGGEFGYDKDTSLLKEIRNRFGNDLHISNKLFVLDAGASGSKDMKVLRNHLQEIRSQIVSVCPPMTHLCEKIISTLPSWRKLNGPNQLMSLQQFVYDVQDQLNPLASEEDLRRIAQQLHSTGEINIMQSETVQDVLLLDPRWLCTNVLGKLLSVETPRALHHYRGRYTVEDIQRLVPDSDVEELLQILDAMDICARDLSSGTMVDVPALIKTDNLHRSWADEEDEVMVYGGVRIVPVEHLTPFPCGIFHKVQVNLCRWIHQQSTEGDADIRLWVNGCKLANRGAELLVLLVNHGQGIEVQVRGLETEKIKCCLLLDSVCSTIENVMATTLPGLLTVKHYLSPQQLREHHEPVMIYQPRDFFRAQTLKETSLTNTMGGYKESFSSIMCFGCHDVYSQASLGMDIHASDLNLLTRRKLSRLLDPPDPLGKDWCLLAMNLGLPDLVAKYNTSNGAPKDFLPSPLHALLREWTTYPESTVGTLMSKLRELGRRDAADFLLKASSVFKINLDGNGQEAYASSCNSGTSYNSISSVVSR
# Method in brief: as §1
# CDK5 = CDK5 (Homo sapiens, UniProt Q00535)
# Method in brief: as §1
# PIK3CA(E545A) = PIK3CA(E545A) (Homo sapiens, UniProt P42336, E545A)
# Chain of PIK3CA(E545A) (P42336 whole entry E545A): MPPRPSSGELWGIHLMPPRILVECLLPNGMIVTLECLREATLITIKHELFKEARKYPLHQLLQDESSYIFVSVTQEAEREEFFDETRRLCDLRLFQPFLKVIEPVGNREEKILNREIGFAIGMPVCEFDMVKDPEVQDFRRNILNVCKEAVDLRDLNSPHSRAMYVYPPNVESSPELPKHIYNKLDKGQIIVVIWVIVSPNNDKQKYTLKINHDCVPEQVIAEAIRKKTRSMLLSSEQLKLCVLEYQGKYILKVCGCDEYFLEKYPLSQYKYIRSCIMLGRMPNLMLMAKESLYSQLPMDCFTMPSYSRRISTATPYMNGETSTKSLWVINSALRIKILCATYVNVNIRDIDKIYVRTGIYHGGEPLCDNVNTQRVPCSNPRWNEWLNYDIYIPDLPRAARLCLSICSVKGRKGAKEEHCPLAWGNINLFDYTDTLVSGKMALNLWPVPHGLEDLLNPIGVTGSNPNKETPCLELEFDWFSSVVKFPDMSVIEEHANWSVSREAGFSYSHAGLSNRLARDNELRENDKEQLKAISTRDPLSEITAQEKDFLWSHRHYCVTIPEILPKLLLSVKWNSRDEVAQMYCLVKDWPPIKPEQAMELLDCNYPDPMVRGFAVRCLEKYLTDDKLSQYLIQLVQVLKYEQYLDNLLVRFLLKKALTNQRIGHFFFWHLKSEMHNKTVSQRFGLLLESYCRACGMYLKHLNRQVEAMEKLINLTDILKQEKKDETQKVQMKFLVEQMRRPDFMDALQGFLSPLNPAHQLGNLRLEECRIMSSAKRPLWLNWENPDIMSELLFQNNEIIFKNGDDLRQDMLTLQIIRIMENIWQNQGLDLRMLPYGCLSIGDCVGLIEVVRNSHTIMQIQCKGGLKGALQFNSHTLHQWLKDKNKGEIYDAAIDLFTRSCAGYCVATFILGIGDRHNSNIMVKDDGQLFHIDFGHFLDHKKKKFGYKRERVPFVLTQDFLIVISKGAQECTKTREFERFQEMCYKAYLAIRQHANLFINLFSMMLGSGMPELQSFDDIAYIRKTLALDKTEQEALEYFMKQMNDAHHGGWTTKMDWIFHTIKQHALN
# Method in brief: as §1
# EGFR(G719C) = EGFR(G719C) (Homo sapiens, UniProt P00533, G719C)
# Method in brief: as §1
# HASPIN = HASPIN (Homo sapiens, UniProt Q8TF76)
# Method in brief: as §1
# Chain of PIK3CA(I800L) (P42336 whole entry I800L): as the sequence (P42336 whole entry E545A) above, with A545E, I800L counted along it
smiles,measurement,setting,value
C=CC(=O)Nc1cc(-n2c(=O)ccc3cnc4ccc(-n5cccn5)cc4c32)ccc1C [CHMFL-BTK-11],remaining binding at 1 µM,MEK2,92%
same,remaining binding at 1 µM,PIK3CA(I800L),62%
same,remaining binding at 1 µM,PIP5K2B,100%
same,remaining binding at 1 µM,PAK4,95%
same,remaining binding at 1 µM,[1],91%
same,remaining binding at 1 µM,TAOK1,100%
same,remaining binding at 1 µM,RAF1,100%
same,remaining binding at 1 µM,PRP4,93%
same,remaining binding at 1 µM,DYRK1B,65%
same,remaining binding at 1 µM,CDK7,89%
same,remaining binding at 1 µM,ADCK3,96%
same,remaining binding at 1 µM,BIKE,91%
same,remaining binding at 1 µM,FLT1,88%
same,remaining binding at 1 µM,RIOK2,87%
same,remaining binding at 1 µM,GRK7,100%
same,remaining binding at 1 µM,DDR2,99%
same,remaining binding at 1 µM,FLT3(R834Q),99%
same,remaining binding at 1 µM,FGFR3(G697C),100%
same,remaining binding at 1 µM,AKT2,100%
same,remaining binding at 1 µM,MAP4K3,100%
same,remaining binding at 1 µM,DAPK1,100%
same,remaining binding at 1 µM,CDK5,100%
same,remaining binding at 1 µM,PIK3CA(E545A),76%
same,remaining binding at 1 µM,EGFR(G719C),97%
same,remaining binding at 1 µM,HASPIN,59%
